Experimental findings from patent US20030091557A1, “Methods and compositions for modulating ACE-2 activity” (priority 2001, published 2003) are described below.

Where a SMILES comes first, the peptide text is derived from it. Bridges are numbered along the chain shown (N, C = ends).

The target of this experiment is ACE-2 (Homo sapiens, UniProt Q9BYF1). Description: Fluorometric ACE-2 inhibition assay with peptide M-2195 as substrate. The experiment is classed as biochemical. Details: nucleotides corresponding to the extracellular domain (M1-S740); FLAG; made in house; host or cells: Sf9 insect cells, recombinant baculovirus (transfer vector pA2); enzyme purified from conditioned media. Conditions: for Ki: ACE-2, M-2195 substrate; for Inhibition: inhibition of ACE-2 activity, M-2195 substrate, class by % inhibition at ~100 μM and IC50. As for the experimental part: Substrate stock (10 μL of 10× concentration) was added to each well to be tested in blocks of three vertically down the plate. The reaction was monitored on a Spectrafluor Plus (Tecan) at an excitation wavelength of 340 nm and an emission wavelength of 400 nm (+/−35 nm) every 30 seconds for a time period of 10 minutes.
ACE-2, sequence (Q9BYF1 18-740): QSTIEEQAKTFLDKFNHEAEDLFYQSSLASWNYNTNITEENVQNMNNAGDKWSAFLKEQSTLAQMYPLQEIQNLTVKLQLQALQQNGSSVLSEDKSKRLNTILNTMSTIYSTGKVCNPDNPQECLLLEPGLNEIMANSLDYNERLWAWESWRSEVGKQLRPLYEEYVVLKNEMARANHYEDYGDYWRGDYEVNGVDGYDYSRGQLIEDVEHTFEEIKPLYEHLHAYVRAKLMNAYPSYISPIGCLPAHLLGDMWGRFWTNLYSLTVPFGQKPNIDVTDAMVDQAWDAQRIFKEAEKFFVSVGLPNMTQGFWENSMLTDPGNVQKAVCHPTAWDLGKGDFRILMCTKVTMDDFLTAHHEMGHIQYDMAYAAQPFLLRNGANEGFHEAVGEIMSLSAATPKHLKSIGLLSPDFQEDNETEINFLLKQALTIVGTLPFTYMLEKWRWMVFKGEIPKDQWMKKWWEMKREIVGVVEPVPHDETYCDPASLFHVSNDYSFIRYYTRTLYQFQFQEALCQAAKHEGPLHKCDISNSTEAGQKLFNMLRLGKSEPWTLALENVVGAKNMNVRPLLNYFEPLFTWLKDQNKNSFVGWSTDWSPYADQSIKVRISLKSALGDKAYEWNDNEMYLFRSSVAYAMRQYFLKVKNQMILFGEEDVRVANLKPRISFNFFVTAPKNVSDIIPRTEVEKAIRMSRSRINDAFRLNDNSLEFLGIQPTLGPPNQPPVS
ACE-2 cleaves off the C-terminal lysine from the peptide with a concomitant increase in fluorescence signal.
The assays were performed in 96-well clear-bottom black plates (Costar, 07-200-590). In each well, 0.45 μg (5 pmoles) of ACE-2 is added to 90 μL of an assay solution containing 100 mM TRIS at pH 7.4, 0.1% Tween, and 0.4% DMSO. Substrate stock at 10 μL of 10× concentration is added to each well (for example, 10 μL of 1 mM stock for a final 100 μM concentration). The reaction was monitored on a Spectrafluor Plus (Tecan) at an excitation wavelength of 340 nm and an emission wavelength of 400 nm (+/−35 nm) every 30 seconds up to 10 minutes. All samples were measured in triplicate. […]

What is called Ki is a measure of affinity in units of concentration, obtained from inhibition or displacement. As to `CC(=O)NCC(=O)N[C@@H](CC(=O)O)C(=O)N[C@@H](CC(C)C)C(=O)N[C@@H](Cc1c[nH]cn1)C(=O)N[C@@H](C)C(=O)N[C@H]1CSSC[C@@H](C(=O)N[C@H](C(=O)N[C@@H](CC(C)C)C(=O)NCC(=O)N[C@@H](CC(=O)O)C(=O)N2CCC[C@H]2C(=O)N[C@@H](CCC(=O)O)C(=O)NCC(=O)NCC(=O)NCC(N)=O)[C@@H](C)O)NC(=O)[C@H](C)NC(=O)[C@H](Cc2c[nH]c3ccccc23)NC(=O)[C@H](Cc2c[nH]c3ccccc23)NC(=O)[C@@H]2CCCN2C(=O)[C@H](CC(=O)O)NC(=O)CNC(=O)[C@H](CCCNC(=N)N)NC(=O)[C@H](C(C)C)NC(=O)[C@@H]2CCCN2C(=O)[C@H](CCCNC(=N)N)NC1=O` [DX-513] (Ac-GDLHACRPVRGDPWWACTLGDPEGGG-NH2; disulfide 6-17), the Ki worked out at 150 nM and the Inhibition result is “++++ (signifies very strong inhibition (˜100% inhibition at 100 μM; with IC50 0.15 μM))”.

As for `CC(=O)NCC(=O)N[C@@H](CO)C(=O)N[C@@H](CCCNC(=N)N)C(=O)NCC(=O)N[C@@H](Cc1ccccc1)C(=O)N[C@H]1CSSC[C@@H](C(=O)N[C@@H](CO)C(=O)N[C@@H](Cc2ccccc2)C(=O)N2CCC[C@H]2C(=O)N[C@@H](C)C(=O)N2CCC[C@H]2C(=O)NCC(=O)N[C@@H](CCC(=O)O)C(=O)NCC(=O)NCC(=O)NCC(N)=O)NC(=O)[C@H](CO)NC(=O)[C@H](CO)NC(=O)[C@H](CC(=O)O)NC(=O)[C@H](CCCNC(=N)N)NC1=O` [DX-525] (Ac-GSRGFCRDSSCSFPAPGEGGG-NH2; disulfide 6-11), the Inhibition result is listed as “+++ (signifies strong inhibition (˜99% inhibition at ˜100 μM; with IC50 between 0.4-1 μM))”.

As to `CC(=O)NCC(=O)N[C@@H](CC(=O)O)C(=O)N[C@@H](CCCNC(=N)N)C(=O)N[C@@H](Cc1ccc(O)cc1)C(=O)N[C@@H](CC(C)C)C(=O)N[C@H]1CSSC[C@@H](C(=O)N[C@@H](CC(N)=O)C(=O)N[C@@H](Cc2c[nH]c3ccccc23)C(=O)N[C@@H](Cc2ccccc2)C(=O)N[C@@H](CC(=O)O)C(=O)N2CCC[C@H]2C(=O)N[C@@H](CCC(=O)O)C(=O)NCC(=O)NCC(=O)NCC(N)=O)NC(=O)[C@H](Cc2ccccc2)NC(=O)[C@H](CCCCN)NC(=O)[C@H](Cc2c[nH]c3ccccc23)NC(=O)[C@@H]2CCCN2C(=O)[C@H](CCCCN)NC(=O)[C@H](CC(=O)O)NC(=O)[C@H](CCCNC(=N)N)NC(=O)[C@H](CCC(N)=O)NC(=O)[C@@H]2CCCN2C(=O)[C@H](CC(C)C)NC1=O` [DX-599] (Ac-GDRYLCLPQRDKPWKFCNWFDPEGGG-NH2; disulfide 6-17), the Inhibition result is reported as “++++ (signifies very strong inhibition (˜100% inhibition at 100 μM; with IC50 0.15 μM))”.

In the case of `CSCC[C@@H]1NC(=O)[C@H](Cc2c[nH]c3ccccc23)NC(=O)[C@@H]2CCCN2C(=O)[C@H](CO)NC(=O)[C@H](CCC(N)=O)NC(=O)[C@H](CCCNC(=N)N)NC(=O)[C@H](CCC(N)=O)NC(=O)[C@@H]2CCCN2C(=O)[C@H](CCCCN)NC(=O)[C@@H](NC(=O)[C@H](Cc2c[nH]cn2)NC(=O)[C@H](CC(C)C)NC(=O)[C@H](CCCNC(=N)N)NC(=O)[C@H](CC(=O)O)NC(=O)CNC(C)=O)CSSC[C@@H](C(=O)N[C@@H](CCC(N)=O)C(=O)N[C@@H](Cc2c[nH]cn2)C(=O)N[C@@H](CC(C)C)C(=O)N[C@@H](CC(=O)O)C(=O)N2CCC[C@H]2C(=O)N[C@@H](CCC(=O)O)C(=O)NCC(=O)NCC(=O)NCC(N)=O)NC(=O)[C@H](CCCCN)NC1=O` [DX-512] (Ac-GDRLHCKPQRQSPWMKCQHLDPEGGG-NH2; disulfide 6-17), the Ki was 150 nM and the Inhibition result is “++++ (signifies very strong inhibition (˜100% inhibition at 100 μM; with IC50 0.15 μM))”.

Consider `CC(=O)NCC(=O)N[C@@H](CC(=O)O)C(=O)N[C@@H](Cc1ccc(O)cc1)C(=O)N[C@@H](CO)C(=O)N[C@@H](Cc1c[nH]cn1)C(=O)N[C@H]1CSSC[C@@H](C(=O)N[C@H](C(=O)N[C@@H](Cc2ccc(O)cc2)C(=O)N2CCC[C@H]2C(=O)N[C@@H](CC(=O)O)C(=O)N2CCC[C@H]2C(=O)N[C@@H](CCC(=O)O)C(=O)NCC(=O)NCC(=O)NCC(N)=O)[C@@H](C)O)NC(=O)[C@H](CCCCN)NC(=O)[C@H](Cc2c[nH]c3ccccc23)NC(=O)[C@H](Cc2c[nH]c3ccccc23)NC(=O)[C@@H]2CCCN2C(=O)[C@H](Cc2ccc(O)cc2)NC(=O)[C@H](Cc2ccc(O)cc2)NC(=O)[C@H](CCCNC(=N)N)NC(=O)[C@H](CC(C)C)NC(=O)[C@@H]2CCCN2C(=O)[C@H](CO)NC1=O` [DX-600], for which the Inhibition entry is “++++ (signifies very strong inhibition (˜100% inhibition at 100 μM; with IC50 0.15 μM))”.

As for `CC(=O)NCC(=O)N[C@@H](CC(=O)O)C(=O)N[C@@H](Cc1ccccc1)C(=O)N[C@@H](CO)C(=O)N1CCC[C@H]1C(=O)N[C@H]1CSSC[C@@H](C(=O)N2CCC[C@H]2C(=O)N[C@@H](CO)C(=O)NCC(=O)N[C@@H](CC(=O)O)C(=O)N2CCC[C@H]2C(=O)N[C@@H](CCC(=O)O)C(=O)NCC(=O)NCC(=O)NCC(N)=O)NC(=O)[C@H](C(C)C)NC(=O)[C@H](Cc2c[nH]c3ccccc23)NC(=O)[C@H](Cc2c[nH]c3ccccc23)NC(=O)[C@@H]2CCCN2C(=O)[C@H](CO)NC(=O)[C@H](Cc2c[nH]cn2)NC(=O)[C@H](CCCNC(=N)N)NC(=O)[C@H](CC(C)C)NC(=O)[C@H](C)NC(=O)[C@H](CCCCN)NC1=O` [DX-602] (Ac-GDFSPCKALRHSPWWVCPSGDPEGGG-NH2; disulfide 6-17), the Inhibition result is “++++ (signifies very strong inhibition (˜100% inhibition at 100 μM; with IC50 0.15 μM))”.

For the molecule `CC[C@H](C)[C@H](NC(=O)[C@H](CCCNC(=N)N)NC(=O)[C@H](CO)NC(=O)CNC(C)=O)C(=O)NCC(=O)N[C@H]1CSSC[C@@H](C(=O)N[C@@H](CC(N)=O)C(=O)N[C@@H](Cc2c[nH]c3ccccc23)C(=O)N[C@@H](Cc2c[nH]c3ccccc23)C(=O)N[C@@H](C)C(=O)N2CCC[C@H]2C(=O)NCC(=O)N[C@@H](CCC(=O)O)C(=O)NCC(=O)NCC(=O)NCC(N)=O)NC(=O)[C@H](CCCNC(=N)N)NC(=O)[C@H](CO)NC(=O)[C@H](CC(=O)O)NC(=O)[C@H](CCCNC(=N)N)NC1=O` [DX-524] (Ac-GSRIGCRDSRCNWWAPGEGGG-NH2; disulfide 6-11), the Inhibition entry was “+++ (signifies strong inhibition (˜99% inhibition at ˜100 μM; with IC50 between 0.4-1 μM))”.

Consider `CC[C@H](C)[C@@H]1NC(=O)[C@@H]2CCCN2C(=O)[C@H](CO)NC(=O)[C@@H](NC(=O)[C@@H](NC(=O)[C@H](Cc2ccccc2)NC(=O)CNC(=O)[C@H](CC(=O)O)NC(=O)CNC(C)=O)[C@@H](C)O)CSSC[C@@H](C(=O)N[C@@H](CC(=O)O)C(=O)N[C@@H](CC(C)C)C(=O)NCC(=O)N[C@@H](CC(=O)O)C(=O)N2CCC[C@H]2C(=O)N[C@@H](CCC(=O)O)C(=O)NCC(=O)NCC(=O)NCC(N)=O)NC(=O)[C@H](CCCNC(=N)N)NC(=O)[C@H](Cc2ccccc2)NC(=O)[C@H](Cc2c[nH]c3ccccc23)NC(=O)[C@@H]2CCCN2C(=O)[C@H](Cc2ccccc2)NC(=O)[C@H](CCSC)NC(=O)[C@H](CCCNC(=N)N)NC1=O` [DX-601] (Ac-GDGFTCSPIRMFPWFRCDLGDPEGGG-NH2; disulfide 6-17), for which the Inhibition result was “++++ (signifies very strong inhibition (˜100% inhibition at 100 μM; with IC50 0.15 μM))”.
